Like-named read-outs stand apart in the source and are kept apart here.
What was measured:
human AR = biological target: T1, human AR (Homo sapiens, UniProt P10275); experiment: co-transfection assay, hAR in CV-1 cells (MTV-LUC reporter); type: cell-based; settings: for AR Agonist CV-1 Cells Efficacy: agonist mode, luciferase production relative to DHT; for AR Agonist CV-1 Cells Efficacy / AR Antagonist CV-1 Cells Efficacy: hAR in CV-1 cells; for AR Antagonist CV-1 Cells Efficacy: antagonist mode, maximal inhibition of DHT-induced luciferase production
T1 construct: expressed in transfected cells; host or cells: CV-1 cells (African green monkey kidney fibroblasts)
T1 sequence (P10275 1-920): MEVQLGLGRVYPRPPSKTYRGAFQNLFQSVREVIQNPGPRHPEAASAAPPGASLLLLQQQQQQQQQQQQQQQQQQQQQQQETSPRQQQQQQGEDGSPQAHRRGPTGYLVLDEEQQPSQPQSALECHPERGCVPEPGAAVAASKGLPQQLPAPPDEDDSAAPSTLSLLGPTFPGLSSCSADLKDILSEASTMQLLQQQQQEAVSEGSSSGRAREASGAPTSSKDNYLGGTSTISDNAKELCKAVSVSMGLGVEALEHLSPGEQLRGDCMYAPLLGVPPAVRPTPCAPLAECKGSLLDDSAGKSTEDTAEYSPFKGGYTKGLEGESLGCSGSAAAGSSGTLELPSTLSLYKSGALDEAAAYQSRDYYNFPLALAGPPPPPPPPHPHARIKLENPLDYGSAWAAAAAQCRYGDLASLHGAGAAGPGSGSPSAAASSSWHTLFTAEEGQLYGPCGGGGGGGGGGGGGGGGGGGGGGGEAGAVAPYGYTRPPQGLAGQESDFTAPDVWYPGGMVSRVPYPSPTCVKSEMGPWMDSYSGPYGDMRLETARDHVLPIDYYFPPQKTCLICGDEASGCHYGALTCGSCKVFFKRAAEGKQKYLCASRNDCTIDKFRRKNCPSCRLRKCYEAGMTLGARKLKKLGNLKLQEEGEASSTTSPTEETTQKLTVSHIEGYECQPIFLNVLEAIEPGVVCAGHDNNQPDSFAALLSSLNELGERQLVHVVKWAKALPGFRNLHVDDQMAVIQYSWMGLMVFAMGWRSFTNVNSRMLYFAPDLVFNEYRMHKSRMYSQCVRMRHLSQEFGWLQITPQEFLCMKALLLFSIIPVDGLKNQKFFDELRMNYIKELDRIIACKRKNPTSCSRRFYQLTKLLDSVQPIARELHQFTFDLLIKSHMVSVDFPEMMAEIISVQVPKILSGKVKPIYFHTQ
Source text: The co-transfection assay provides a method for identifying functional agonists and partial agonists that mimic, or antagonists that inhibit, the effect of native hormones and quantifying their activity for responsive IR proteins. In this regard, the co-transfection assay mimics an in vivo system in the laboratory. Importantly, activity in the co-transfection assay correlates very well with known in vivo activity, such that the co-transfection assay functions as a qualitative and quantitative predictor of a tested compounds in vivo pharmacology. , See e.g., T. Berger et al. 41 J. Steroid Biochem. Molec.
(§1) CV-1 cells (African green monkey kidney fibroblasts) were cultured in the presence of Dulbecco's Modified Eagle Medium (DMEM) supplemented with 10% charcoal resin-stripped fetal bovine serum (CH-FBS) then transferred to 96-well microtiter plates one day prior to transfection.
The reporter plasmid, MTV-LUC, contains the cDNA for firefly luciferase (LUC) under control of the mouse mammary tumor virus (MTV) long terminal repeat, a conditional promoter containing an androgen response element. See e.g., Berger et al. supra. In addition, pRS-β-Gal, coding for constitutive expression of E. coli β-galactosidase (β-Gal), was included as an internal control for evaluation of transfection efficiency and compound toxicity.
(§2) Three to four replicates were used for each sample.
(§3) After 40 hours, the cells were washed with PBS, lysed with a Triton X-100-based buffer and assayed for LUC and β-Gal activities using a luminometer or spectrophotometer, respectively. For each replicate, the normalized response (NR) was calculated as: LUC response/β-Gal rate • where β-Gal rate=β-Gal/β-Gal incubation time.

ER = biological target: T2, ER (Homo sapiens, UniProt P03372); experiment: co-transfection assay, ER; type: cell-based
T2 construct: expressed in transfected cells; host or cells: background cell substantially devoid of endogenous IRs (CV-1 described for the co-transfection assay)
T2 sequence (P03372 1-595): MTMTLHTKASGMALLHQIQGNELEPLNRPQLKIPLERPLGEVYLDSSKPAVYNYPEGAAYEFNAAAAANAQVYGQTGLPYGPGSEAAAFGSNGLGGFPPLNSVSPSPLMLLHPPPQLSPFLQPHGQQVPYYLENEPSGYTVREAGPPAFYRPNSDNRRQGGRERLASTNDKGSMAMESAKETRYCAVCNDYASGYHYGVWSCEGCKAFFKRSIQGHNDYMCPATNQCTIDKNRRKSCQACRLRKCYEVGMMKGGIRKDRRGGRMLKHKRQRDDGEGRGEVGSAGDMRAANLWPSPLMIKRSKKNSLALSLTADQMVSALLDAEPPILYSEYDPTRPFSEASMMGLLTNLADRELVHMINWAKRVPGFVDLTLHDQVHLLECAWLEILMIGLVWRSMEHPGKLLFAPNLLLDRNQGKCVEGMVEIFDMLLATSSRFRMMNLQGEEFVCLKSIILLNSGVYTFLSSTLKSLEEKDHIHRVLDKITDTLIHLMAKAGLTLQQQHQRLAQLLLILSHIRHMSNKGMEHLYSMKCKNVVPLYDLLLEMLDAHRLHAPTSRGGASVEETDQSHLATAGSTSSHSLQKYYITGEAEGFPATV
Method: as §1, §2, §3

## C=CCN1c2ccc3[nH]c(=O)cc(C(F)(F)F)c3c2OC[C@H]1C(C)C [Compound 126, (3R)-4-Allyl-2,3,4,7-tetrahydro-3-isopropyl-10-(trifluoromethyl)-8H-[1,4]oxazino[2,3-f]quinolin-8-one]
Human AR
  EC50: 35 nM

## CC[C@@H]1COc2c(ccc3[nH]c(=O)cc(C(F)(F)F)c23)N1CC [Compound 109, (3R)-3,4-Diethyl-2,3,4,7-tetrahydro-10-(trifluoromethyl)-8H-[1,4]oxazino[2,3-f]quinolin-8-one]
Human AR
  EC50: 411 nM
  AR Agonist CV-1 Cells Efficacy: 29%
  AR Antagonist CV-1 Cells Efficacy: na (not active (i.e. efficacy of <20 and potency of >10,000 nM for the cotransfection assay)

## CN1CC(C)(C)Oc2c1ccc1[nH]c(=O)cc(C(F)(F)F)c21 [Compound 138, 2,3,4,7-Tetrahydro-2,2,4-trimethyl-10-(trifluoromethyl)-8H-[1,4]oxazino[2,3-f]quinolin-8-one]
Human AR
  EC50: > 10000 nM
  AR Agonist CV-1 Cells Efficacy: na (not active (i.e. efficacy of <20 and potency of >10,000 nM for the cotransfection assay)
  AR Antagonist CV-1 Cells Efficacy: 90%

## C[C@@H]1COc2c(ccc3[nH]c(=O)cc(C(F)(F)F)c23)N1C [Compound 102, (3R)-2,3,4,7-Tetrahydro-3,4-dimethyl-10-(trifluoromethyl)-8H-[1,4]oxazino[2,3-f]quinolin-8-one]
Human AR
  EC50: > 10000 nM
  AR Agonist CV-1 Cells Efficacy: na (not active (i.e. efficacy of <20 and potency of >10,000 nM for the cotransfection assay)
  AR Antagonist CV-1 Cells Efficacy: 32%

## CCCC1COc2c(ccc3[nH]c(=O)cc(C(F)(F)F)c23)N1C (racemic) [Compound 117, (±)-2,3,4,7-Tetrahydro-4-methyl-3-propyl-10-(trifluoromethyl)-8H-[1,4]oxazino[2,3-f]quinolin-8-one]
Human AR
  EC50: > 10000 nM
  AR Agonist CV-1 Cells Efficacy: na (not active (i.e. efficacy of <20 and potency of >10,000 nM for the cotransfection assay)
  AR Antagonist CV-1 Cells Efficacy: 74%

## C[C@@H]1COc2c(ccc3[nH]c(=O)cc(C(F)(F)F)c23)N1CC(F)(F)F [Compound 104, (3R)-2,3,4,7-Tetrahydro-3-methyl-4-(2,2,2-trifluoroethyl)-10-(trifluoromethyl)-8H-[1,4]oxazino[2,3-f]quinolin-8-one]
Human AR
  EC50: 7 nM
  AR Agonist CV-1 Cells Efficacy: 73%
  AR Antagonist CV-1 Cells Efficacy: na (not active (i.e. efficacy of <20 and potency of >10,000 nM for the cotransfection assay)

## CCCC1COc2c(ccc3[nH]c(=O)cc(C(F)(F)F)c23)N1 (racemic) [Compound 116, (±)-2,3,4,7-Tetrahydro-3-propyl-10-(trifluoromethyl)-8H-[1,4]oxazino[2,3-f]quinolin-8-one]
Human AR
  EC50: > 10000 nM
  AR Agonist CV-1 Cells Efficacy: na (not active (i.e. efficacy of <20 and potency of >10,000 nM for the cotransfection assay)
  AR Antagonist CV-1 Cells Efficacy: 79%

## CC(=O)S[C@@H]1CC2=CC(=O)CC[C@]2(C)[C@H]2CC[C@@]3(C)[C@@H](CC[C@@]34CCC(=O)O4)[C@H]12 [Spir, spironolactone, reference compound]
ER
  EC50: > 10 µM
  IC50: > 10 µM

## CC(C)(O)C(=O)Nc1ccc([N+](=O)[O-])c(C(F)(F)F)c1 [Flut, 2-hydroxyflutamide, reference compound]
ER; agonist mode, read-out: ER Potency Agon
  EC50: > 10 µM
ER; antagonist mode, read-out: ER Potency Antag
  IC50: > 10 µM

## CC[C@@H]1COc2c(ccc3[nH]c(=O)cc(C(F)(F)F)c23)N1 [Compound 107, (3R)-3-Ethyl-2,3,4,7-tetrahydro-10-(trifluoromethyl)-8H-[1,4]oxazino[2,3-f]quinolin-8-one]
Human AR
  EC50: 301 nM
  AR Agonist CV-1 Cells Efficacy: 17%
  AR Antagonist CV-1 Cells Efficacy: 56%

## C[C@@H]1Oc2c(ccc3[nH]c(=O)cc(C(F)(F)F)c23)N(CC(F)(F)F)[C@@H]1C (racemic) [Compound 136, (±)-(2S,3R)-2,3,4,7-Tetrahydro-2,3-dimethyl-4-(2,2,2-trifluoroethyl)-10-(trifluoromethyl)-8H-[1,4]oxazino[2,3-f]quinolin-8-one]
Human AR
  EC50: 34 nM
  AR Agonist CV-1 Cells Efficacy: 61%
  AR Antagonist CV-1 Cells Efficacy: 24%

## CCN1c2ccc3[nH]c(=O)cc(C(F)(F)F)c3c2OC[C@H]1C(C)C [Compound 122, (3R)-4-Ethyl-2,3,4,7-tetrahydro-3-isopropyl-10-(trifluoromethyl)-8H-[1,4]oxazino[2,3-f]quinolin-8-one]
Human AR
  EC50: 270 nM
  AR Agonist CV-1 Cells Efficacy: 76%
  AR Antagonist CV-1 Cells Efficacy: na (not active (i.e. efficacy of <20 and potency of >10,000 nM for the cotransfection assay)
